Test results published in ChEMBL document CHEMBL1201862, “PubChem BioAssay data set” (2004).
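Exposure lasted 48 hours, with cells grown in 96-well plates and compounds tested at five concentrations. GI50 is the concentration that inhibits growth by half.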 The source made the active and inactive calls. Rule as the data show it: active = GI50 up to about 1.1 µM and inactive = higher.

Legend:
Test in all cases: NCI anticancer screen, dose series, 48 h
786-0 = system: 786-0
A498 = system: A498
A549 = system: A549
ACHN = system: ACHN
CAKI-1 = system: CAKI-1
CCRF-CEM = system: CCRF-CEM
COLO 205 = system: COLO 205
DU-145 = system: DU-145
EKVX = system: EKVX
HCC 2998 = system: HCC 2998
HCT-116 = system: HCT-116
HCT-15 = system: HCT-15
HL-60 = system: HL-60
HOP-62 = system: HOP-62
HOP-92 = system: HOP-92
HT-29 = system: HT-29
Hs-578T = system: Hs-578T
K562 = system: K562
KM12 = system: KM12
LOX IMVI = system: LOX IMVI
M14 = system: M14
MCF7 = system: MCF7
MDA-MB-231 = system: MDA-MB-231
MDA-MB-435 = system: MDA-MB-435
MDA-N = system: MDA-N
MOLT-4 = system: MOLT-4
Malme-3M = system: Malme-3M
NCI-H226 = system: NCI-H226
NCI-H23 = system: NCI-H23
NCI-H460 = system: NCI-H460
NCI/ADR-RES = system: NCI/ADR-RES
OVCAR-3 = system: OVCAR-3
OVCAR-4 = system: OVCAR-4
OVCAR-5 = system: OVCAR-5
PC-3 = system: PC-3
RPMI-8226 = system: RPMI-8226
RXF 393 = system: RXF 393
SF-268 = system: SF-268
SF-295 = system: SF-295
SF-539 = system: SF-539
SK-MEL-28 = system: SK-MEL-28
SK-MEL-2 = system: SK-MEL-2
SK-MEL-5 = system: SK-MEL-5
SK-OV-3 = system: SK-OV-3
SN12C = system: SN12C
SNB-19 = system: SNB-19
SR = system: SR
SW-620 = system: SW-620
T47D = system: T47D
TK-10 = system: TK-10
U-251 = system: U-251
UACC-257 = system: UACC-257
UACC-62 = system: UACC-62
UO-31 = system: UO-31
IGROV-1 = system: IGROV-1
NCI-H522 = system: NCI-H522
OVCAR-8 = system: OVCAR-8
SNB-75 = system: SNB-75
BT-549 = system: BT-549

Compound: CNC(=S)N/N=C1\C(=O)N(CN2CCOCC2)c2ccc([N+](=O)[O-])cc21
- GI50 (786-0): 15.3 µM (inactive)
- GI50 (A498): 24.5 µM (inactive)
- GI50 (A549): 31.9 µM (inactive)
- GI50 (ACHN): 17.5 µM (inactive)
- GI50 (CAKI-1): 17.7 µM (inactive)
- GI50 (CCRF-CEM): 23.5 µM (inactive)
- GI50 (COLO 205): 26.9 µM (inactive)
- GI50 (DU-145): 13.7 µM (inactive)
- GI50 (EKVX): 15.6 µM (inactive)
- GI50 (HCC 2998): 14.9 µM (inactive)
- GI50 (HCT-116): 15.4 µM (inactive)
- GI50 (HCT-15): 12.9 µM
- GI50 (HL-60): 23.6 µM (inactive)
- GI50 (HOP-62): 14.1 µM (inactive)
- GI50 (HOP-92): 21.3 µM (inactive)
- GI50 (HT-29): 40.6 µM (inactive)
- GI50 (Hs-578T): 25 µM (inactive)
- GI50 (K562): > 100 µM (inactive)
- GI50 (KM12): 22.8 µM (inactive)
- GI50 (LOX IMVI): 17.4 µM (inactive)
- GI50 (M14): 31.6 µM (inactive)
- GI50 (MCF7): 20.4 µM (inactive)
- GI50 (MDA-MB-231): 11.9 µM (inactive)
- GI50 (MDA-MB-435): 60.3 µM (inactive)
- GI50 (MDA-N): 67.9 µM (inactive)
- GI50 (MOLT-4): 43.6 µM (inactive)
- GI50 (Malme-3M): 16.1 µM (inactive)
- GI50 (NCI-H226): 15.8 µM (inactive)
- GI50 (NCI-H23): 17.7 µM (inactive)
- GI50 (NCI-H460): 23.4 µM (inactive)
- GI50 (NCI/ADR-RES): 16.3 µM (inactive)
- GI50 (OVCAR-3): 17.5 µM (inactive)
- GI50 (OVCAR-4): 14.8 µM (inactive)
- GI50 (OVCAR-5): 22.8 µM (inactive)
- GI50 (PC-3): 22.1 µM (inactive)
- GI50 (RPMI-8226): 21.2 µM (inactive)
- GI50 (RXF 393): 16.4 µM (inactive)
- GI50 (SF-268): 20.2 µM (inactive)
- GI50 (SF-295): 18.2 µM (inactive)
- GI50 (SF-539): 17.7 µM (inactive)
- GI50 (SK-MEL-28): 20.7 µM (inactive)
- GI50 (SK-MEL-2): 6.5 µM (inactive)
- GI50 (SK-MEL-5): 32.5 µM (inactive)
- GI50 (SK-OV-3): 16.8 µM (inactive)
- GI50 (SN12C): 16.4 µM (inactive)
- GI50 (SNB-19): 21.9 µM (inactive)
- GI50 (SR): 53.3 µM (inactive)
- GI50 (SW-620): 28.2 µM (inactive)
- GI50 (T47D): 18.9 µM (inactive)
- GI50 (TK-10): 13.3 µM (inactive)
- GI50 (U-251): 14.7 µM (inactive)
- GI50 (UACC-257): 25.4 µM (inactive)
- GI50 (UACC-62): 15.3 µM (inactive)
- GI50 (UO-31): 3.05 µM (inactive)

Compound: Cc1ccc2c(c1)CC1(C2)Cc2ccc(C)cc2C1=O (configuration not stated)
- GI50 (786-0): 16.8 µM (inactive)
- GI50 (A498): 36.9 µM (inactive)
- GI50 (A549): 33.3 µM (inactive)
- GI50 (ACHN): 27.7 µM (inactive)
- GI50 (CAKI-1): 18.5 µM (inactive)
- GI50 (CCRF-CEM): 22.1 µM (inactive)
- GI50 (COLO 205): 15.4 µM (inactive)
- GI50 (DU-145): 31.9 µM (inactive)
- GI50 (EKVX): 32.2 µM (inactive)
- GI50 (HCC 2998): 25.9 µM (inactive)
- GI50 (HCT-116): 21.2 µM (inactive)
- GI50 (HCT-15): 15.6 µM
- GI50 (HL-60): 19 µM (inactive)
- GI50 (HOP-62): 28 µM (inactive)
- GI50 (HOP-92): 19.5 µM (inactive)
- GI50 (HT-29): 18.7 µM (inactive)
- GI50 (Hs-578T): 20.7 µM (inactive)
- GI50 (IGROV-1): 36 µM (inactive)
- GI50 (K562): 22.8 µM (inactive)
- GI50 (KM12): 23.5 µM (inactive)
- GI50 (LOX IMVI): 20.1 µM (inactive)
- GI50 (M14): 20.2 µM (inactive)
- GI50 (MCF7): 24.7 µM (inactive)
- GI50 (MDA-MB-231): 21.5 µM (inactive)
- GI50 (MDA-MB-435): 11.4 µM (inactive)
- GI50 (MDA-N): 7.35 µM (inactive)
- GI50 (MOLT-4): 14.9 µM (inactive)
- GI50 (Malme-3M): 12.5 µM (inactive)
- GI50 (NCI-H226): 11.5 µM (inactive)
- GI50 (NCI-H23): 36.5 µM (inactive)
- GI50 (NCI-H460): 23.3 µM (inactive)
- GI50 (NCI-H522): 19.9 µM (inactive)
- GI50 (NCI/ADR-RES): 15.9 µM (inactive)
- GI50 (OVCAR-3): 23.9 µM (inactive)
- GI50 (OVCAR-4): 46.5 µM (inactive)
- GI50 (OVCAR-5): 43.9 µM (inactive)
- GI50 (OVCAR-8): 36.5 µM (inactive)
- GI50 (PC-3): 27.9 µM (inactive)
- GI50 (RPMI-8226): 22.3 µM (inactive)
- GI50 (RXF 393): 17.9 µM (inactive)
- GI50 (SF-268): 32 µM (inactive)
- GI50 (SF-295): 45.9 µM (inactive)
- GI50 (SF-539): 26.2 µM (inactive)
- GI50 (SK-MEL-28): 42 µM (inactive)
- GI50 (SK-MEL-2): 19.9 µM (inactive)
- GI50 (SK-MEL-5): 13 µM (inactive)
- GI50 (SK-OV-3): 59.3 µM (inactive)
- GI50 (SN12C): 24.8 µM (inactive)
- GI50 (SNB-19): 61.4 µM (inactive)
- GI50 (SNB-75): 18.2 µM (inactive)
- GI50 (SR): 12.6 µM (inactive)
- GI50 (SW-620): 30.6 µM (inactive)
- GI50 (T47D): 59.6 µM (inactive)
- GI50 (TK-10): 31.2 µM (inactive)
- GI50 (U-251): 37 µM (inactive)
- GI50 (UACC-257): 18.9 µM (inactive)
- GI50 (UO-31): 27.5 µM (inactive)

Compound: CCc1nnc(CC)n1NCCCC(=O)O
- GI50 (786-0): > 100 µM (inactive)
- GI50 (A549): > 100 µM (inactive)
- GI50 (ACHN): > 100 µM (inactive)
- GI50 (BT-549): > 100 µM (inactive)
- GI50 (CCRF-CEM): > 100 µM (inactive)
- GI50 (COLO 205): > 100 µM (inactive)
- GI50 (DU-145): > 100 µM (inactive)
- GI50 (EKVX): > 100 µM (inactive)
- GI50 (HCC 2998): > 100 µM (inactive)
- GI50 (HCT-116): > 100 µM (inactive)
- GI50 (HCT-15): > 100 µM
- GI50 (HOP-62): > 100 µM (inactive)
- GI50 (HOP-92): > 100 µM (inactive)
- GI50 (HT-29): > 100 µM (inactive)
- GI50 (IGROV-1): > 100 µM (inactive)
- GI50 (K562): > 100 µM (inactive)
- GI50 (KM12): > 100 µM (inactive)
- GI50 (LOX IMVI): > 100 µM (inactive)
- GI50 (M14): > 100 µM (inactive)
- GI50 (MCF7): > 100 µM (inactive)
- GI50 (MDA-MB-231): > 100 µM (inactive)
- GI50 (MDA-MB-435): > 100 µM (inactive)
- GI50 (MDA-N): > 100 µM (inactive)
- GI50 (MOLT-4): > 100 µM (inactive)
- GI50 (NCI-H23): > 100 µM (inactive)
- GI50 (NCI-H522): > 100 µM (inactive)
- GI50 (NCI/ADR-RES): > 100 µM (inactive)
- GI50 (OVCAR-3): > 100 µM (inactive)
- GI50 (OVCAR-4): > 100 µM (inactive)
- GI50 (OVCAR-5): > 100 µM (inactive)
- GI50 (OVCAR-8): > 100 µM (inactive)
- GI50 (PC-3): > 100 µM (inactive)
- GI50 (RPMI-8226): > 100 µM (inactive)
- GI50 (RXF 393): > 100 µM (inactive)
- GI50 (SF-268): > 100 µM (inactive)
- GI50 (SF-295): > 100 µM (inactive)
- GI50 (SF-539): > 100 µM (inactive)
- GI50 (SK-MEL-28): > 100 µM (inactive)
- GI50 (SK-MEL-2): > 100 µM (inactive)
- GI50 (SK-MEL-5): > 100 µM (inactive)
- GI50 (SK-OV-3): > 100 µM (inactive)
- GI50 (SN12C): > 100 µM (inactive)
- GI50 (SNB-19): > 100 µM (inactive)
- GI50 (SNB-75): > 100 µM (inactive)
- GI50 (SR): > 100 µM (inactive)
- GI50 (SW-620): > 100 µM (inactive)
- GI50 (TK-10): > 100 µM (inactive)
- GI50 (U-251): > 100 µM (inactive)
- GI50 (UACC-257): > 100 µM (inactive)
- GI50 (UACC-62): > 100 µM (inactive)
- GI50 (UO-31): > 100 µM (inactive)
